The source of these data is ChEMBL document CHEMBL1146934, “Polyhydroxylated 4-thiaflavans as multipotent antioxidants: protective effect on oxidative DNA damage in vitro” (Bioorg Med Chem Lett, 2006).

Active and inactive are the calls of the source. The calls are words filed in the database; no cut-off is given here.

Assay [1] relates to Radical scavenging activity. The experiment in a line: Effect on CumOOH-induced oxidative damage of herring sperm DNA assessed as reduction in 8-OHdG level. The class given is functional. On the set-up: scale not given: the % may be the effect or the level left. The conditions noted are these: Clupea.
For assay [2], the system named is Radical scavenging activity. The experiment in a line: Effect on glutathione/ferric ion-induced oxidative damage of herring sperm DNA assessed as reduction in 8-OHdG level. It counts as functional. Further details: scale not given: the % may be the effect or the level left. The conditions noted are these: Clupea.

For the compound `COc1ccc(C2CSc3c(O)cc(O)cc3O2)cc1` (configuration not stated), the result in assay [1] was inactive. The result in assay [2] was Active.
For `COc1ccc(C2CSc3cc(O)ccc3O2)cc1` (configuration not stated), the outcome in assay [1] was inactive.
On the same count and under the same terms, under `COc1cc(OC)c2c(c1)OC(c1ccc(O)c(O)c1)CS2` (configuration not stated) stands 30%.
For the compound `Oc1cc(O)c2c(c1)OC(c1ccc(O)c(O)c1)CS2` (configuration not stated), the figures for the Activity in assay [1] and in assay [2] were 30% and 82%, respectively.
For VITAMIN E the same measures were 61% and 33%.
Turning to `Oc1cc(O)c2c(c1)OC(c1ccc(O)c(O)c1)C(O)C2` (racemic), the values for the Activity in assay [1] and in assay [2] were 32% and 36%, respectively.
Turning to `COc1ccc(C2CSc3ccc(O)cc3O2)cc1` (configuration not stated), the result in assay [1] was inactive. Besides, the outcome in assay [2] was Active.
